Measured values reported in US10386375B2, “Methods and systems for the diagnosis and treatment of androgen disorders” (Function Promoting Therapies LLC, priority 2013, dated 2019).

Key:
[1] = Percent free testosterone calculated in serum samples from the TED trial; assay type: in vitro ADME, men
Experimental: Assessment of FT Concentrations in Clinical Trials. FT determined using the dynamic model developed in this study (cFTZBJ) and Vermeulen's equation (cFTV) (as implemented by Mazer, (Mazer 2009)) were compared with those measured using equilibrium dialysis in samples derived from randomized testosterone trials in men (Spitzer et al 2012) and women (Huang et al 2012). These samples had been collected in fasting state in the morning, stored at −80° C., and never thawed.
At baseline and after 12-weeks of testosterone or placebo administration, total testosterone concentrations were measured using LC-MS/MS and SHBG concentrations using a two-site immunofluorometric assay (DELFIA®, Perkin-Elmer, Waltham, Mass.) (21). FT was measured in the same samples by equilibrium dialysis(Bhasin et al 2012).
Application of new Multi-step Dynamic Binding Model with Complex Allostery to Clinical Trials Data. SHBG and albumin are predominantly the two proteins that bind testosterone with significant affinity; the binding affinities of transcortin and orosomucoid for testosterone are extremely low. […]

SHBG = target: T1, SHBG (Homo sapiens, UniProt P04278); details: Model A, Vermeulen's model: equal affinity for each monomer in SHBG dimer; fixed model value; cited from earlier work
T1 sequence (P04278 30-402): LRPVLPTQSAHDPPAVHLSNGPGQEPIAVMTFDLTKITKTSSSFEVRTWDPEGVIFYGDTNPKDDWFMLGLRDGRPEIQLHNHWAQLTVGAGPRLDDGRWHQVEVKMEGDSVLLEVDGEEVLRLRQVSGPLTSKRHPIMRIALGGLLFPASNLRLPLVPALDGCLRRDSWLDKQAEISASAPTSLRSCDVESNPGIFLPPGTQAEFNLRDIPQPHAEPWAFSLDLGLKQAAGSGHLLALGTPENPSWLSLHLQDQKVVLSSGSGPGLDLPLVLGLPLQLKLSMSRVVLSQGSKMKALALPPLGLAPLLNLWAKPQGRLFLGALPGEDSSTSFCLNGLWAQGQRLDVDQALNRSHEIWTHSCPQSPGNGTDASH

C[C@]12CC[C@H]3[C@@H](CCC4=CC(=O)CC[C@@]43C)[C@@H]1CC[C@@H]2O [testosterone, 17-β-hydroxyandrost-4-en-3-one]
fraction of circulating testosterone which is free ([1]; calculated with the new dynamic model (cFTZBJ), clinical trial samples): 2.9±0.4% | % cFTV ([1]; percent free testosterone calculated with Vermeulen's equation, as generally assumed): 1.5±0.4% | Kd (SHBG): 1 nM
